Assays:
TDG [1] = molecular target: T1, TDG (Homo sapiens, UniProt Q13569); assay: TDG inhibitory activity of compounds in cells (caC-cmv-firefly luciferase reporter, HEK 293T TDG KO cells transfected with pCDNA4-TDG); assay type: cell-based; settings: read-out: Inhibition rate on TDG activity
Procedure: Experimental Determination of TDG Inhibitory Activity of Compounds in Cells
The operation steps of this example are as follows:
(1) Preparation of Methylation Reporter Plasmid:
(a) SAM with a stock solution concentration of 32 mM was diluted with ultrapure water to 1600 μM;
(b) The reaction system was prepared according to the following ratio: 30 μl ultrapure water, 5 μl 10×NEBuffer 2, 5 μl diluted SAM, 1 μg pCpGL-CMV-firefly plasmid, 1 μl SssI methylase (4 U/μl); 50 μl in total, the reaction was carried out at 37° C. for 2 hours;
(c) The mixture was heated at 65° C. for 20 minutes. Then 0.2% SDS was added, the reaction was carried out at 80° C. for 10 min; and then 1 μl Proteinase K was added, the reaction was carried out at 50° C. for 1 h;
(d) The methylated plasmid was recovered with Dr. GenTLE® sedimentation aid (TAKARA).
(2) Preparation of 5fC/5caC pCpGL-CMV-Firefly Reporter Plasmid
(a) The following 10× reaction system was prepared:
(b) The reaction system was prepared according to the following ratio:
(c) The reaction was carried out at 37° C. for one hour;
(d) 24 μg Tet1 protein was added for the second time and the reaction was continued for one hour;
(e) SDS was added to a final concentration of 0.5%, 80° C., 10 minutes, then 1 μl Proteinase K was added, 55° C. overnight.
(f) The treated caC-cmv-firefly plasmid was recovered with Dr. GenTLE® sedimentation aid (TAKARA) and was quantified.
(3) Using the Luciferase Activity Assay Method to Detect the Inhibitory Rate of Small Molecule Compounds on Intracellular TDG Enzyme Activity
In a 96-well plate, the reaction system and operation flow of each well were as follows:
(a) 1 ng caC-cmv-firefly, Ing pCpGL-CMV-Relina and 150 ng pCDNA4-TDG or 150 ng pCDNA4-myc plasmid, were diluted to 75 ul Opti-MEM, mixed well and allowed to stand still for 5 minutes;
(b) 2 ul transfection reagent (Hieff Trans™ Liposomal transfection Reagent (0.5 ul/well, YEAEEN, Cat #40802)) was diluted in 100 ul Opti-MEM, mixed well and allowed to stand still for 5 minutes;
(c) 75 ul of (a) and (b) were mixed respectively, and allowed to stand still at room temperature for 20 minutes;
(d) HEK 293T TDG KO cells were digested with trypsin, the cells were collected and counted, and the suspension cell concentration was adjusted to 4×10^5/ml;
(e) 50 ul of the mixture (c) was added to each well, and at the same time 100 ul of the diluted cell suspension was added to the same well, and they were mixed well.
(f) After the cells adhering to the wall, different concentrations of small molecule compounds to be tested were added to each well.
(g) Incubation was performed in a 37° C. CO2 incubator for 72 hours. The supernatant was removed and the cells were quickly freezed at −80° C.
(h) Before detecting the luciferase activity, the cells to be tested were removed from −80° C. and allowed to stand still at room temperature for 30 minutes. Following the instructions of Dual-Glo® Luciferase Reagent (PROMEGA), the firefly fluorescence value and Renilla fluorescence value of each well were detected.
(i) The firefly fluorescence value was divided with the Renilla fluorescence value of each well; 96-well plate Z′ and experimental window was calculated by the ratio of transfected caC-cmv-firefly, pCpGL-CMV-Relina, pCDNA4-TDG plasmid mixture plus DMSO experimental group to transfected caC-cmv-firefly, pCpGL-CMV-Relina, pCDNA4-myc plasmid mixture plus DMSO experimental group, and the relative enzyme activity inhibition rate of each compound was calculated.
According to the biological method described in this example, the selected compounds of the present invention were analyzed, and the results are shown in Table 2. Among them, “+” in Table 2 refers to the compound's TDG inhibitory activity at a concentration of 10 μM≤25%; “++” refers to the compound's TDG inhibitory activity at a concentration of 10 μM>25%.

TDG [2] = molecular target: T1, TDG; assay: Inhibition of TDG mismatch repair activity (fluorescent G·U double-stranded DNA probe T1-T2); assay type: biochemical; settings: TDG 100 nM/L, preincubated with compound 37° C. 30 minutes; probe 30 nM; read-out: Inhibitory activity on TDG mismatch repair IC50
Text: 14.1 Experimental Determination of Compound's Inhibitory Rate on TDG Mismatch Repair Activity
(1) A double-stranded DNA probe T1-T2 containing uracil bases was synthesized. The nucleotide sequence of the T1 chain was: 5′-FAM-TAAUGTGAATGGAGCTGAAAT-biotin-3′; The nucleotide sequence of the T2 chain was 5′-ATTTCAGCTCCATTCACGTTA-3′. Using PCR annealing program, the T1 strand and T2 strand were complementary to form a double-stranded DNA probe T1-T2.
(2) The reaction system and steps for each well of a 96-well plate were as follows: a. TDG (100 nM/L) was mixed with different concentrations of compounds, and the mixture was incubated at 37° C. for 30 minutes. The composition of the reaction buffer was: 20 mM HEPES pH7.5, 100 mM NaCl, 0.2 mM EDTA, 2.5 mM MgCl2; b. The double-stranded DNA probe T1-T2 was added to the mixture to obtain a final volume of 100 μL, with a concentration of 30 nM, and the mixture was incubated at 25° C. for 30 min; c. 1 μL of streptavidin magnetic beads were added to the reaction solution and fully bound the biotin-labeled DNA for 1 hour; d. NaOH was added to the reaction solution to a final concentration of 200 mM, and the mixture was incubated at room temperature for 30 minutes; e. Under the action of a magnetic stand the streptavidin magnetic beads were adsorbed to the tube wall, the supernatant was transferred to a new 96-well plate, and placed in a Tecan microplate reader for fluorescence measurement. The parameter settings were: excitation wavelength 485 nm; emission wavelength 520 nm. A linear curve between fluorescence intensity and TDG concentration was constructed, R^2=0.9968, and the linear range was 0-50 nM/L;
According to the biological method described in this example, the selected compounds of the present invention were analyzed, and the results are shown in Table 1. Among them, “++” in Table 1 refers to the inhibitory activity for TDG mismatch repair with IC50≤5 μM; “+” refers to the inhibitory activity for TDG mismatch repair with IC50>5 μM.

[3] = test system: Lung cancer cell line Calu-1; assay: Inhibition of the growth of Calu-1 cells (CellTiter-Glo, 72 hours); assay type: cell-based; settings: Homo sapiens, 72 hours of culturing, read-out: Inhibitory activity on alu-1 cell growth IC50
Procedure: 14.2 Experimental Determination of Compound's Inhibitory Rate on the Growth of Calu-1 Cells
Lung cancer cell line Calu-1 was cultured in 90% McCoy's 5A medium (BI, 01-075-1ACS)+10% fetal bovine serum (Gibco, 10270106), placed in a CO2 incubator (37° C., 5% CO2, 95% air) for culturing. Calu-1 cells were digested with trypsin (Gibco, 12604-021) and seeded in a 384-well plate at a density of 500 cells per well. The medium was 50 μL and it was cultured overnight at 37° C. in an incubator. On the next day, different concentrations of test compounds were added, and the final concentration of DMSO was 0.1%. After 72 hours of culturing, the cells were taken out for test. The cell culture medium from the 384-well plate to be tested was removed, and fresh culture medium premixed with CTG was immediately added: the ratio of the culture medium to CellTiter-Glo® 2.0 reagent (Promega, G9243) was 2:1, 30 ul was added to each well. The plate was shaken at room temperature for 20 minutes, and then a multi-function plate reader (TECAN, Infinite 200 Pro) was used according to the reagent instructions to determine the cell survival.
According to the biological method described in this example, the selected compounds of the present invention were analyzed, and the results are shown in Table 1. Among them, “++” in Table 1 refers to the inhibitory activity on the growth of calu-1 cells with IC50≤5 μM; “+” refers to the inhibitory activity on the growth of calu-1 cells with IC50>5 μM.

T1 sequence (Q13569 whole entry): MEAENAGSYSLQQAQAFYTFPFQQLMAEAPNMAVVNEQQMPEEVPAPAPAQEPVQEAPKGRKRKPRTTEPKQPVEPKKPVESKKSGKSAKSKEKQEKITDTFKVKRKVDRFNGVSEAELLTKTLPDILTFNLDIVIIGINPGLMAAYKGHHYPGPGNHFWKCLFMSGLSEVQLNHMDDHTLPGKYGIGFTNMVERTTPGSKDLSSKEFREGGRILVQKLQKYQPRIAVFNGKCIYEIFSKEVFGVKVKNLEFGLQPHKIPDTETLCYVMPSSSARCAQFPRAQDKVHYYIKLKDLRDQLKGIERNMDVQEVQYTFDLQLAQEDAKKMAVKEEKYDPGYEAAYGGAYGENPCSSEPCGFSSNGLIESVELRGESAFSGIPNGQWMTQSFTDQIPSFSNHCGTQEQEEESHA

SMILES	inhibition at 10 µM (TDG [1]) [%]	IC50 (TDG [2]) [µM]	IC50 [3] [µM]
O=C(CCn1ccc(-c2ccc(F)cc2)cc1=O)c1ccc2c(c1)OCCO2 [Compound 18, 1-(3-(2,3-dihydrobenzo[b][1,4]dioxin-6-yl)-3-oxopropyl)-4-(4-fluorophenyl)pyridine-2(1H)-one]	> 25	≤ 5	> 5
O=C(CCN1CCN(c2ncccn2)CC1)c1ccc2c(c1)OCCO2 [Compound 19, 1-(2,3-dihydrobenzo[b][1,4]dioxin-6-yl)-3-(4-(pyrimidin-2-yl)piperazin-1-yl)propan-1-one]	< 25	> 5	≤ 5
O=C(CCNc1ccc2cnccc2c1)c1ccc2c(c1)OCCO2 [Compound 20, 1-(2,3-dihydrobenzo[b][1,4]dioxin-6-yl)-3-(isoquinolin-6-ylamino)propan-1-one]	< 25	> 5	> 5
O=C(CCN1CCC(c2ccccc2)CC1)c1ccc2c(c1)OCCO2 [Compound 21, 1-(2,3-dihydrobenzo[b][1,4]dioxin-6-yl)-3-(4-phenylpiperidin-1-yl)propan-1-one]	< 25	≤ 5	> 5
O=C(CCN1C(=O)CSC1=S)c1ccc2c(c1)OCCO2 [Compound 22, 3-(3-(2,3-dihydrobenzo[b][1,4]dioxin-6-yl)-3-oxopropyl)-2-thiothiazolidine-4-one]	< 25	> 5	> 5
CC(C)(C)OC(=O)NCC1(O)CN(CCC(=O)c2ccc3c(c2)OCCO3)C1 [Compound 23, tert-butyl ((1-(3-(2,3-dihydrobenzo[b][1,4]dioxin-6-yl)-3-oxopropyl)-3-hydroxyazetidin-3-yl)methyl)carbamate]	< 25	> 5	> 5
COc1ccc2cn(CCC(=O)c3ccc4c(c3)OCCO4)nc2c1 [Compound 24, 1-(2,3-dihydrobenzo[b][1,4]dioxin-6-yl)-3-(6-methoxy-2H-indazol-2-yl)propan-1-one]	< 25	> 5	> 5
O=C(CCn1ncc2ccncc21)c1ccc2c(c1)OCCO2 [Compound 25, 1-(2,3-dihydrobenzo[b][1,4]dioxin-6-yl)-3-(1H-pyrazolo[3,4-c]pyridine-1-yl)propan-1-one]	< 25	> 5	> 5
O=C(CCNC1=NCc2ccccc21)c1ccc2c(c1)OCCO2 [Compound 26, 3-((1H-isoindo1-3-yl)amino)-1-(2,3-dihydrobenzo[b][1,4]dioxin-6-yl)propan-1-one]	< 25	> 5	> 5
O=C(CCN1CCC(=O)c2ccccc21)c1ccc2c(c1)OCCO2 [Compound 27, 1-(3-(2,3-dihydrobenzo[b][1,4]dioxin-6-yl)-3-oxopropyl)-2,3-dihydroquinoline-4(1H)-one]	< 25	> 5	> 5
O=C(CCn1cc(-c2ccccc2)cn1)c1ccc2c(c1)OCCO2 [Compound 28, 1-(2,3-dihydrobenzo[b][1,4]dioxin-6-yl)-3-(4-phenyl-1H-pyrazol-1-yl)propan-1-one]	< 25	> 5	> 5
c1ccc2c(c1)CN(CCCc1ccc3c(c1)OCCO3)C2 [Compound 29, 2-(3-(2,3-dihydrobenzo[b][1,4]dioxin-6-yl)propyl)isoindoline]	> 25	> 5	> 5
O=C(CCN1Cc2ccccc2C1)c1ccc2c(c1)CCCN2 [Compound 30, 3-(isoindolin-2-yl)-1-(1,2,3,4-tetrahydroquinolin-6-yl)propan-1-one]	< 25	> 5	> 5
O=C(CCCN1Cc2ccccc2C1)c1ccc2c(c1)OCCO2 [Compound 31, 1-(2,3-dihydrobenzo[b][1,4]dioxin-6-yl)-4-(isoindolin-2-yl)butan-1-one]	< 25	> 5	> 5
O=C(CN1Cc2ccccc2C1)c1ccc2c(c1)OCCO2 [Compound 32, 1-(2,3-dihydrobenzo[b][1,4]dioxin-6-yl)-2-(isoindolin-2-yl)ethan-1-one]	< 25	> 5	> 5
O=C(c1ccc2c(c1)OCCO2)N1Cc2ccccc2C1 [Compound 33, (2,3-dihydrobenzo[b][1,4]dioxin-6-yl)(isoindolin-2-yl)methanone]	< 25	> 5	> 5
O=C(CCN1Cc2ccccc2C1)c1ccc2c(c1)CCO2 [Compound 34, 1-(2,3-dihydrobenzofuran-5-yl)-3-(isoindolin-2-yl)propan-1-one]	< 25	> 5	> 5
